Results taken from PubChem BioAssay AID1963848 (Molecular Pharmacology Branch, DTP, NCI, 2024).

System: 379773-124-R-J2-PDC spheroid viability
Assay: Anticancer human tumor 379773-124-R-J2-PDC patient-derived endometrial carcinoma cell line growth inhibition [POLQ]
Conditions: spheroids with HUVEC and MSC; for IC50: curve of first compound; for viability, T/C: stronger effect = lower value
Summary of the method: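 Complex spheroid viability model combining PDC tumour cells with endothelial (HUVEC) and MSC stromal cells. Novobiocin, ART-558 or RP6685 were tested singly and in combination with standard and investigational anticancer drugs. Each was titrated in half-log steps from near clinical Cmax, or from 10 microM where Cmax was unknown.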

[1] = second compound 0.0316 µM, first compound 0.0316 µM
[2] = second compound 0.0316 µM, first compound 0.1 µM
[3] = second compound 0.1 µM, first compound 0.0316 µM
[4] = second compound 0.1 µM, first compound 0.1 µM
[5] = second compound 0.316 µM, first compound 0.0316 µM
[6] = second compound 0.316 µM, first compound 0.1 µM
[7] = second compound 1 µM, first compound 0.0316 µM
[8] = second compound 1 µM, first compound 0.1 µM
[9] = second compound 3.16 µM, first compound 0.0316 µM
[10] = second compound 3.16 µM, first compound 0.1 µM
[11] = second compound 10 µM, first compound 0.0316 µM
[12] = second compound 10 µM, first compound 0.1 µM
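Note: spheroids exposed to drugs for seven days before readout.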
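Throughout, for viability, T/C: percent viability relative to DMSO vehicle control taken as 100%.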

CC[C@@]1(O)C(=O)OCc2c1cc1n(c2=O)Cc2cc3c(CN(C)C)c(O)ccc3nc2-1 + COC1C(OC(N)=O)C(O)C(Oc2ccc3c(O)c(NC(=O)c4ccc(O)c(CC=C(C)C)c4)c(=O)oc3c2C)OC1(C)C
IC50 (second compound 0.0316 µM): 0.0325 µM
IC50 (second compound 0.1 µM): 0.0192 µM
IC50 (second compound 0.316 µM): 0.019 µM
IC50 (second compound 1 µM): 0.017 µM
IC50 (second compound 3.16 µM): 0.0219 µM
IC50 (second compound 10 µM): 0.021 µM
viability, T/C (second compound 0.0316 µM, first compound 0.000316 µM): 86.5%
viability, T/C (second compound 0.0316 µM, first compound 0.001 µM): 79.3%
viability, T/C (second compound 0.0316 µM, first compound 0.00316 µM): 85.7%
viability, T/C (second compound 0.0316 µM, first compound 0.01 µM): 73.5%
viability, T/C [1]: 51.2%
viability, T/C [2]: 10.9%
viability, T/C (second compound 0.1 µM, first compound 0.000316 µM): 73.3%
viability, T/C (second compound 0.1 µM, first compound 0.001 µM): 77.8%
viability, T/C (second compound 0.1 µM, first compound 0.00316 µM): 74.1%
viability, T/C (second compound 0.1 µM, first compound 0.01 µM): 71.2%
viability, T/C [3]: 33.9%
viability, T/C [4]: 14.1%
viability, T/C (second compound 0.316 µM, first compound 0.000316 µM): 85.7%
viability, T/C (second compound 0.316 µM, first compound 0.001 µM): 78.6%
viability, T/C (second compound 0.316 µM, first compound 0.00316 µM): 78.2%
viability, T/C (second compound 0.316 µM, first compound 0.01 µM): 71.2%
viability, T/C [5]: 33.6%
viability, T/C [6]: 12.1%
viability, T/C (second compound 1 µM, first compound 0.000316 µM): 86.4%
viability, T/C (second compound 1 µM, first compound 0.001 µM): 94.9%
viability, T/C (second compound 1 µM, first compound 0.00316 µM): 72.6%
viability, T/C (second compound 1 µM, first compound 0.01 µM): 68%
viability, T/C [7]: 32.2%
viability, T/C [8]: 9.89%
viability, T/C (second compound 3.16 µM, first compound 0.000316 µM): 76.9%
viability, T/C (second compound 3.16 µM, first compound 0.001 µM): 71.5%
viability, T/C (second compound 3.16 µM, first compound 0.00316 µM): 83.1%
viability, T/C (second compound 3.16 µM, first compound 0.01 µM): 65%
viability, T/C [9]: 42.4%
viability, T/C [10]: 11.6%
viability, T/C (second compound 10 µM, first compound 0.000316 µM): 72.9%
viability, T/C (second compound 10 µM, first compound 0.001 µM): 73.3%
viability, T/C (second compound 10 µM, first compound 0.00316 µM): 82.5%
viability, T/C (second compound 10 µM, first compound 0.01 µM): 69.6%
viability, T/C [11]: 38.8%
viability, T/C [12]: 12.5%

COc1ccc([C@@H](O)c2cc(-c3ncnc4cc(N5CCOCC5)ccc34)c(F)cc2Cl)nn1 + COC1C(OC(N)=O)C(O)C(Oc2ccc3c(O)c(NC(=O)c4ccc(O)c(CC=C(C)C)c4)c(=O)oc3c2C)OC1(C)C
IC50 (second compound 0.0316 µM): 7.23 µM
IC50 (second compound 0.1 µM): 9.89 µM
IC50 (second compound 0.316 µM): 7.3 µM
IC50 (second compound 1 µM): 8.15 µM
IC50 (second compound 3.16 µM): 7.85 µM
IC50 (second compound 10 µM): 7.09 µM
viability, T/C [1]: 89.6%
viability, T/C [2]: 85.1%
viability, T/C (second compound 0.0316 µM, first compound 0.316 µM): 88.3%
viability, T/C (second compound 0.0316 µM, first compound 1 µM): 80%
viability, T/C (second compound 0.0316 µM, first compound 3.16 µM): 81.1%
viability, T/C (second compound 0.0316 µM, first compound 10 µM): 37.6%
viability, T/C [3]: 81.4%
viability, T/C [4]: 81.4%
viability, T/C (second compound 0.1 µM, first compound 0.316 µM): 91.5%
viability, T/C (second compound 0.1 µM, first compound 1 µM): 81.1%
viability, T/C (second compound 0.1 µM, first compound 3.16 µM): 91.1%
viability, T/C (second compound 0.1 µM, first compound 10 µM): 49.7%
viability, T/C [5]: 92.6%
viability, T/C [6]: 82.1%
viability, T/C (second compound 0.316 µM, first compound 0.316 µM): 79.1%
viability, T/C (second compound 0.316 µM, first compound 1 µM): 81.6%
viability, T/C (second compound 0.316 µM, first compound 3.16 µM): 75.1%
viability, T/C (second compound 0.316 µM, first compound 10 µM): 40.4%
viability, T/C [7]: 74.2%
viability, T/C [8]: 83.1%
viability, T/C (second compound 1 µM, first compound 0.316 µM): 83.9%
viability, T/C (second compound 1 µM, first compound 1 µM): 87.8%
viability, T/C (second compound 1 µM, first compound 3.16 µM): 82.1%
viability, T/C (second compound 1 µM, first compound 10 µM): 43.1%
viability, T/C [9]: 81%
viability, T/C [10]: 83.3%
viability, T/C (second compound 3.16 µM, first compound 0.316 µM): 96.7%
viability, T/C (second compound 3.16 µM, first compound 1 µM): 77.5%
viability, T/C (second compound 3.16 µM, first compound 3.16 µM): 78.5%
viability, T/C (second compound 3.16 µM, first compound 10 µM): 42.5%
viability, T/C [11]: 80.3%
viability, T/C [12]: 75.8%
viability, T/C (second compound 10 µM, first compound 0.316 µM): 82.6%
viability, T/C (second compound 10 µM, first compound 1 µM): 80.1%
viability, T/C (second compound 10 µM, first compound 3.16 µM): 95.8%
viability, T/C (second compound 10 µM, first compound 10 µM): 35.9%
